Structures are written as SMILES.

Test [1] addresses GPR35 (Homo sapiens (Human), UniProt Q9HC97). Kind of test: Label-free DMR functional assay in HT-29 cells. The class given is cell-based. The settings on record: HT-29 cell line endogenously expressing human GPR35; DMR normalised to Lodoxamide. The protocol: HT-29 cells (ATCC HTB-38) kept in continuous culture in McCoys (Thermo 16600082) supplemented with 10% FBS. Day prior to assay, cells harvested with TrypLE (Gibco12604-013), and plated at 20 k/well in culture media in a total volume of 50 ul in Corning EPIC 384 well plates (5040) overnight 37° C. 5% CO2. On the day of assay, cell media was removed and replaced with assay buffer (HBSS+20 mM HEPES pH7.4) and reincubated for 1 h. Compounds were prepared in 100% DMSO in ECHO LDV 384 source plates. Cell plates were read on an EPIC plate reader at room temperature for 15 mins, read paused, and cell plate added to LabCyte ECHO 550 for addition of 50 nl per well compound by acoustic transfer. Plates were immediately placed back into the EPIC reader, read unpaused and Dynamic Mass Redistribution measured for 60 minutes. Raw data was analysed by EPIC Analyser software and max peak taken per concentration to enable EC50 determination. All raw DMR data was normalised to Lodoxamide and buffer corrected.
(§1) • Ki values derived from concentration response analysis in HEKf cell membranes overexpressing GPR35a isoform. EC50 values derived from concentration response analysis in HT-29 cell line endogenously expressing human GPR35.

Test [2] has as its target Human GPR35a isoform (Homo sapiens (Human), UniProt Q9HC97). Kind of test: Human GPR35a isoform binding (radioligand, HEK293f membranes). To be noted: HEKf cell membranes overexpressing GPR35a isoform; read-out: Human GPR35 Ki. How it is done: Overexpression of Human GPR35a Baculovirus in HEK293f cells at a cell density of 2.5×10^6 cells/mL and a multiplicity of infection of 2.5 over 24 h in Pro293 (Lonza)+5% FBS, 1% Glutamax and 0.4% Pen/Strep. Cells harvested and centrifuged at 2500 RPM for 10 mins at 4° C. The supernatant was then poured off and the pellet stored at −80° C. The pellet was defrosted and re-suspended in 15 mL of homogenising buffer (20 mM HEPES, 10 mM EDTA, pH 7.4). Then homogenised in mechanical homogeniser (VMR) for 10 seconds. The membrane was centrifuged in centrifuge tubes at 40,000 g for 15 mins at 4° C. The supernatant was poured away and re-suspended in 15 mL of homogenising buffer. Homogenised for 20 seconds. The membrane was centrifuged at 40,000 g for 45 mins at 4° C. The membrane was re-suspended in 3 mL of storage buffer (20 mM HEPES, 0.1 mM EDTA, pH 7.4) mixing well. The resulting membranes were then stored at −80°. GPR35 cell membrane homogenates were re-suspended in the binding buffer (50 mM TRIS+10 mM MgCl2 pH 7.4) to a final assay concentration of 5 ug/well. Test compounds were diluted in dimethylsulphoxide (DMSO (Sigma Aldrich, UK)), to form a 10 point ½ log concentration curve. Test compounds were added per plate, followed by 7 nM 3H-27966. 0.1 uM FAC Lodoxamide was added in order to allow non-specific binding to be calculated. Finally, membrane was added to each well on the plate. After 60 min incubation at room temperature, membranes were filtered onto a unifilter, 96-well white microplate with bonded GF/B filter, pre-soaked in ddH20, with a TomTec cell harvester, and washed 5 times with distilled water. Plates were dried prior to 50 ul/well scintillant added, sealed and radioactivity measured using a MicroBeta analyser. IC50 values were derived from the inhibition curve and affinity constant (Ki) values were calculated using the Cheng-Prussoff equation, where; pKi=−log 10 Ki.
as §1

Sequence of GPR35 (Q9HC97 whole entry): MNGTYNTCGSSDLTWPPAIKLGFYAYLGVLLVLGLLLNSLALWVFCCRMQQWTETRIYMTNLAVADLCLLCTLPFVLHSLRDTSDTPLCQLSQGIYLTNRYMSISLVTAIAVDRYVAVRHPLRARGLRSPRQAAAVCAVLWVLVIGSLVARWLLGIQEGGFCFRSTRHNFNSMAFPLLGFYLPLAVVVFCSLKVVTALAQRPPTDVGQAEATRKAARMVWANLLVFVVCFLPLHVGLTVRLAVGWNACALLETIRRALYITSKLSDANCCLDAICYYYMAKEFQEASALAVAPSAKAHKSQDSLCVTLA
Sequence of Human GPR35a isoform (Q9HC97 whole entry, canonical isoform): as the sequence (Q9HC97 whole entry) above

For the molecule `COCCNC(=O)c1ccc(-c2cc(Nc3c(O)c(=O)c3=O)cc(-c3nn[nH]n3)c2)cc1` [Example 7, 3′-((2-hydroxy-3,4-dioxocyclobut-1-en-1-yl)amino)-N-(2-methoxyethyl)-5′-(1H-tetrazol-5-yl)-[1,1′-biphenyl]-4-carboxamide], the EC50 in test [1] was found to be 4.2 nM. Also, the inhibitory constant (Ki) in test [2] came out at 2.77 nM.
Taken in the same sequence, the figures for `O=c1c(O)c(Nc2cc(-c3nn[nH]n3)cc(C3CCCCC3)c2)c1=O` [Example 28, 3-((3-cyclohexyl-5-(1H-tetrazol-5-yl)phenyl)amino)-4-hydroxycyclobut-3-ene-1,2-dione] were 6.65 nM and 12.5 nM.
Taken in the same sequence, the figures for `O=c1c(O)c(Nc2cc(-c3ccc(OCc4ccccc4)nc3)cc(-c3nn[nH]n3)c2)c1=O` [Example 16, 3-((3-(6-(benzyloxy)pyridin-3-yl)-5-(1H-tetrazol-5-yl)phenyl)amino)-4-hydroxycyclobut-3-ene-1,2-dione] were 0.27 nM and 0.06 nM.
In turn, `O=c1c(O)c(Nc2cccc(-c3nn[nH]n3)c2)c1=O` [Example 1, 3-((3-(1H-tetrazol-5-yl)phenyl)amino)-4-hydroxycyclobut-3-ene-1,2-dione] returned an EC50 in test [1] of 8.68 nM. In other words, the single-digit nanomolar range.
Molecule `O=c1c(O)c(Nc2cc(-c3ccc4[nH]ncc4c3)cc(-c3nn[nH]n3)c2)c1=O` [Example 25, 3-((3-(1H-indazol-5-yl)-5-(1H-tetrazol-5-yl)phenyl)amino)-4-hydroxycyclobut-3-ene-1,2-dione] had a 50% effective concentration (EC50) in test [1] of 0.44 nM. For the same molecule, in test [2], the Ki is 0.37 nM.
Regarding `COCCOc1ccc(CNC(=O)c2ccc(-c3cc(Nc4c(O)c(=O)c4=O)cc(-c4nn[nH]n4)c3)cc2)cc1` [Example 8, 3′-((2-hydroxy-3,4-dioxocyclobut-1-en-1-yl)amino)-N-(4-(2-methoxyethoxy)benzyl)-5′-(1H-tetrazol-5-yl)-[1,1′-biphenyl]-4-carboxamide], the concentration for a half-maximal effect (EC50) in test [1] was 0.66 nM. In addition, the Ki in test [2] came to 1.47 nM.
Molecule `O=c1c(O)c(Nc2cc(-c3ccc4cn(CCOc5ccc(C(F)(F)F)cc5)nc4c3)cc(-c3nnn[nH]3)c2)c1=O` [Example 23, 3-((3-(1H-tetrazol-5-yl)-5-(2-(2-(4-(trifluoromethyl)phenoxy)ethyl)-2H-indazol-6-yl)phenyl)amino)-4-hydroxycyclobut-3-ene-1,2-dione] gave an EC50 in test [1] of 0.12 nM. Further, the Ki in test [2] is 0.46 nM.
Taken in the same sequence, the figures for `O=C(O)c1cccc(-c2cc(Nc3c(O)c(=O)c3=O)cc(-c3nn[nH]n3)c2)c1` [Example 11, 3′-((2-hydroxy-3,4-dioxocyclobut-1-en-1-yl)amino)-5′-(1H-tetrazol-5-yl)-[1,1′-biphenyl]-3-carboxylic acid] were 4.31 nM and 6.24 nM.
For the molecule `COc1cc(-c2nn[nH]n2)cc(Nc2c(O)c(=O)c2=O)n1` [Example 17, 3-hydroxy-4-((6-methoxy-4-(1H-tetrazol-5-yl)pyridin-2-yl)amino)cyclobut-3-ene-1,2-dione], the EC50 in test [1] was determined as 9.25 nM. Besides, in test [2], the Ki was found to be 7.85 nM.
The like results for `O=c1c(O)c(Nc2cc(-c3ccc(OCCOc4ccc(C(F)(F)F)cc4)nc3)cc(-c3nn[nH]n3)c2)c1=O` [Example 27, 3-((3-(1H-tetrazol-5-yl)-5-(6-(2-(4-(trifluoromethyl)phenoxy)ethoxy)pyridin-3-yl)phenyl)amino)-4-hydroxycyclobut-3-ene-1,2-dione] were, in that order, 0.54 nM and 0.75 nM.
The like results for `O=c1c(O)c(Nc2cc(-c3ccc(OCCOc4cc(C(F)(F)F)cc(C(F)(F)F)c4)nc3)cc(-c3nn[nH]n3)c2)c1=O` [Example 26, 3-((3-(6-(2-(3,5-bis(trifluoromethyl)phenoxy)ethoxy)pyridin-3-yl)-5-(1H-tetrazol-5-yl)phenyl)amino)-4-hydroxycyclobut-3-ene-1,2-dione] were, in that order, 1.04 nM and 0.36 nM.
Taken in the same sequence, the figures for `O=c1c(O)c(Nc2cc(-c3ccc(C(F)(F)F)cc3)cc(-c3nn[nH]n3)c2)c1=O` [Example 15, 3-((5-(1H-tetrazol-5-yl)-4′-(trifluoromethyl)-[1,1′-biphenyl]-3-yl)amino)-4-hydroxycyclobut-3-ene-1,2-dione] were 2.02 nM and 0.16 nM.
In the case of `O=C(NCc1ccc(C(F)(F)F)cc1)c1ccc(-c2cc(Nc3c(O)c(=O)c3=O)cc(-c3nn[nH]n3)c2)cc1` [Example 12, 3′-((2-hydroxy-3,4-dioxocyclobut-1-en-1-yl)amino)-5′-(1H-tetrazol-5-yl)-N-(4-(trifluoromethyl)benzyl)-[1,1′-biphenyl]-4-carboxamide], the EC50 in test [1] came out at 0.03 nM. Besides, the Ki in test [2] is 0.31 nM.
Molecule `CCOC(=O)c1cccc(-c2cc(Nc3c(O)c(=O)c3=O)cc(-c3nn[nH]n3)c2)c1` [Example 4, ethyl 3′-((2-hydroxy-3,4-dioxocyclobut-1-en-1-yl)amino)-5′-(1H-tetrazol-5-yl)-[1,1′-biphenyl]-3-carboxylate] returned an EC50 in test [1] of 2.5 nM. The Ki in test [2] amounted to 3.83 nM.
Taken in the same sequence, the figures for `CCc1cc(Nc2c(O)c(=O)c2=O)cc(-c2nn[nH]n2)c1` [Example 10, 3-((3-ethyl-5-(1H-tetrazol-5-yl)phenyl)amino)-4-hydroxycyclobut-3-ene-1,2-dione] were 2.34 nM and 2.75 nM.
In test [1], `O=c1c(O)c(Nc2ccc(F)c(-c3nn[nH]n3)c2)c1=O` [Example 13, 3-((4-fluoro-3-(1H-tetrazol-5-yl)phenyl)amino)-4-hydroxycyclobut-3-ene-1,2-dione] yielded an EC50 of 2.39 nM. In addition, the Ki in test [2] stood at 0.99 nM.
Taken in the same sequence, the figures for `O=c1c(O)c(Nc2cc(-c3nn[nH]n3)cc(C(F)(F)F)c2)c1=O` [Example 2, 3-((3-(1H-tetrazol-5-yl)-5-(trifluoromethyl)phenyl)amino)-4-hydroxycyclobut-3-ene-1,2-dione] were 0.9 nM and 0.48 nM.
As for `O=c1c(O)c(Nc2cc(-c3nn[nH]n3)cc(Oc3ccccc3)n2)c1=O` [Example 22, 3-hydroxy-4-((6-phenoxy-4-(1H-tetrazol-5-yl)pyridin-2-yl)amino)cyclobut-3-ene-1,2-dione], the EC50 in test [1] was 1.39 nM. Besides, the Ki in test [2] came to 3.66 nM.
Taken in the same sequence, the figures for `O=c1c(O)c(Nc2cc(-c3nn[nH]n3)cc(C3CC3)c2)c1=O` [Example 24, 3-((3-cyclopropyl-5-(1H-tetrazol-5-yl)phenyl)amino)-4-hydroxycyclobut-3-ene-1,2-dione] were 8.19 nM and 15.2 nM.
The like results for `O=c1c(O)c(Nc2cc(-c3ccnnc3)cc(-c3nn[nH]n3)c2)c1=O` [Example 29, 3-hydroxy-4-((3-(pyridazin-4-yl)-5-(1H-tetrazol-5-yl)phenyl)amino)cyclobut-3-ene-1,2-dione] were, in that order, 1.05 nM and 0.74 nM.
The like results for `O=c1c(O)c(Nc2ccc(Cl)c(-c3nn[nH]n3)c2)c1=O` [Example 14, 3-((4-chloro-3-(1H-tetrazol-5-yl)phenyl)amino)-4-hydroxycyclobut-3-ene-1,2-dione] were, in that order, 4.9 nM and 0.6 nM.
With `O=c1c(O)c(Nc2cc(-c3nn[nH]n3)cc(-c3ccccc3)n2)c1=O` [Example 18, 3-hydroxy-4-((6-phenyl-4-(1H-tetrazol-5-yl)pyridin-2-yl)amino)cyclobut-3-ene-1,2-dione], in test [1], the 50% effective concentration (EC50) worked out at 5.18 nM. The Ki in test [2] was 2.65 nM.
The like results for `O=C(NCc1ccccc1)c1cccc(-c2cc(Nc3c(O)c(=O)c3=O)cc(-c3nn[nH]n3)c2)c1` [Example 6, N-benzyl-3′-((2-hydroxy-3,4-dioxocyclobut-1-en-1-yl)amino)-5′-(1H-tetrazol-5-yl)-[1,1′-biphenyl]-3-carboxamide] were, in that order, 0.62 nM and 1.82 nM.
As for `O=c1c(O)c(Nc2cc(-c3ccccc3)cc(-c3nn[nH]n3)c2)c1=O` [Example 3, 3-((5-(1H-tetrazol-5-yl)-[1,1′-biphenyl]-3-yl)amino)-4-hydroxycyclobut-3-ene-1,2-dione], the EC50 in test [1] is 2.27 nM.

By EC50 is commonly meant the concentration that produces a half-maximal response. High values mean lower potency in that assay, low ones higher potency in that assay. As a reminder, the Ki is a dissociation constant, usually derived from enzyme kinetics or from competition with a known ligand.

(Values after patent US20240254093A1, “GPR35 Agonist Compounds” (Heptares Therapeutics Limited, priority 2021, published 2024).)
